Ki and Activity data for ten compounds are collected here from ChEMBL document CHEMBL1142224, “Mapping the elusive neonicotinoid binding site” (Proc Natl Acad Sci U S A, 2007).

Experiment [1] can be described thus: Displacement of [3H]EPI from Aplysia AChBP expressed in HEK293S cells by scintillation proximity assay. The class given is cell-based. In general terms: Displacement assays read how much labelled ligand stays bound in the presence of the test substance.
Experiment [2] can be described thus: Displacement of [3H]ACE from Aplysia AChBP expressed in HEK293S cells by scintillation proximity assay. The class given is cell-based.
A short description of experiment [3]: Inhibition of [3H]1-((5-azido-6-chloropyridin-3-yl)methyl)-3-methyl-2-nitroguanidine incorporation into AchBP assessed as protection of photoaffinity labeling at 500 pmol. Details: scale not given: the % may be the effect or the level left.

One may read the Ki as a dissociation constant, usually derived from enzyme kinetics or from competition with a known ligand. As to `N=C1NCCN1Cc1ccc(Cl)nc1` [DESNITROIMIDACLOPRID], the Ki in experiment [1] is 0.044 µM; in experiment [2], 0.056 µM.
Taken in the same sequence, the figures for `N#C/N=C1\SCCN1Cc1ccc(Cl)nc1` [THIACLOPRID] were 0.0084 µM and 0.0099 µM.
As to `O=[N+]([O-])/N=C1\NCCN1Cc1ccc(Cl)nc1` [IMIDACLOPRID], the Activity in experiment [3] was determined as 50%. In addition, the Ki in experiment [1] is 0.18 µM; in experiment [2], 0.267 µM.
With `CN/C(=N\[N+](=O)[O-])NCc1cnc(Cl)s1` [CLOTHIANIDINE], the Ki in experiment [1] was determined as 0.574 µM; in experiment [2] it was 0.808 µM.
For `N#C/N=c1\sccn1Cc1cnc(Cl)c(N=[N+]=[N-])c1`, the Ki in experiment [1] worked out at 0.0017 µM; in experiment [2] it was 0.0023 µM.
Regarding `N=C1SCCN1Cc1ccc(Cl)nc1` [DESCYANOTHIACLOPRID], the Ki in experiment [1] is 0.0085 µM; in experiment [2], 0.01 µM.
Taken in the same sequence, the figures for `CN1CCC[C@H]1c1cccnc1` [NICOTINE] were 0.26 µM and 0.415 µM.
For `CCN(Cc1ccc(Cl)nc1)/C(=C/[N+](=O)[O-])NC` [NITENPYRAM] the same measures were 0.18 µM and 0.335 µM.
For the compound `C/C(=N\C#N)N(C)Cc1ccc(Cl)nc1` [ACETAMIPRID], the Ki in experiment [1] came to 0.019 µM; in experiment [2], 0.041 µM.
Turning to `Clc1ccc(C2CC3CCC2N3)cn1` (racemic) [EPIBATIDINE], the Ki turned out to be 0.0086 µM in experiment [1] and 0.014 µM in experiment [2].
